According to article PMC10449633 (Nature Chemical Biology, 2023):
Several values for one entry are separate records, joined by “and”; a condition that tells them apart may be missing. Equal entries are not always repeated. Where two headings read alike, the source gives them in different places. Square brackets hold non-standard residues; d marks the D form. Peptide text beside a SMILES is read from it. NMeTrp(1-(4-Br-benzyl)) = CN[C@@H](Cc1cn(Cc2ccc(Br)cc2)c2ccccc12)C(=O)O; Butanoyl(2R-oxy,4-CN) = N#CCC[C@@H](O)C(=O)O; Abu(4,4,4-F3) = N[C@@H](CC(F)(F)F)C(=O)O; NMeL = CN[C@@H](CC(C)C)C(=O)O; NMeA = CN[C@@H](C)C(=O)O

Assays:
[1] = target: T1, Sec61 (Homo sapiens, UniProt P61619); test: cell-based
T1 construct: endogenous in cells
Target sequence in this assay (P60059 whole entry): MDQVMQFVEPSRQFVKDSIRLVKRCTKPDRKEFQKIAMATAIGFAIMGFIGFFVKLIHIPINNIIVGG
Target sequence in this assay (P61619 whole entry): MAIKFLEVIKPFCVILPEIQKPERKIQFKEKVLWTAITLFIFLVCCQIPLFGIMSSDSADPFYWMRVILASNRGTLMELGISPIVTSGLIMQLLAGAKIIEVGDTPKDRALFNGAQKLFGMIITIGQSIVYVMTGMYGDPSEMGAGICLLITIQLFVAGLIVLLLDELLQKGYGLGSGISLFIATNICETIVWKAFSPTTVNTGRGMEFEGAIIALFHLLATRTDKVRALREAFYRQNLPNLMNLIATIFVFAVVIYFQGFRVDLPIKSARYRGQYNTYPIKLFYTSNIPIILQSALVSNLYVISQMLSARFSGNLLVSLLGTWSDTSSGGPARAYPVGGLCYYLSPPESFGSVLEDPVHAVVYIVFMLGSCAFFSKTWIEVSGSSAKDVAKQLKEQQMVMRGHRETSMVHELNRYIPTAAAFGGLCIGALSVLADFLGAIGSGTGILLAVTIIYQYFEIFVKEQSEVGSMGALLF
Target sequence in this assay (P60468 whole entry, further chain): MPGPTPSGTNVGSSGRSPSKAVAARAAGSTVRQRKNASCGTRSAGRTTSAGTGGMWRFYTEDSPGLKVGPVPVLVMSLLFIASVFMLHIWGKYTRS

[2] = target: T1, Sec61; test: signal peptide-GLuc (SP-GLuc) reporter panel, 89 constructs; format: cell-based; conditions: read-out: IC50
From the text: The heat map depicts IC50 values calculated from each SP-GLuc dose–response curve. d, Arthritis was induced in BALB/c mice with antibodies specific for type II collagen (mAb) on day 0 and endotoxin on day 3. On day 4, when the disease was present in all animals, mice were randomized and treated for 2 weeks with thrice weekly (QODx3) or weekly (QW) intravenous administration of vehicle or KZR-8445 or intraperitoneal administration of dexamethasone. Clinical scores (0–4 per paw; n = 10 per group) and body weights were followed until day 14. Data are presented as mean values ± s.d. mAb, monoclonal antibody. Source data
To investigate the effects of KZR-8445 on secretory and membrane protein biogenesis and to establish Sec61α as the relevant target, we quantified the secretion of a doxycycline-inducible Gaussia luciferase (GLuc) reporter fused to the C-terminus of two full-length pro-inflammatory cytokines, interleukin-2 (IL-2) (which contains a cleavable signal peptide) and tumor necrosis factor-alpha (TNFα) (which contains an N-terminal transmembrane anchor). […] KZR-8445 is structurally related to CT8, which discriminates among Sec61 clients based largely on their N-terminal signal peptide. […] We also directly compared KZR-8445 to mycolactone A/B, a structurally distinct and relatively client-nonselective Sec61 inhibitor[8],[25], for their ability to discriminate between vascular cell adhesion molecule (VCAM) and preprolactin (pPL) signal peptides.
Target sequence in this assay (P61619 whole entry): as the sequence (P61619 whole entry) above
Target sequence in this assay (P60059 whole entry, further chain): as the sequence (P60059 whole entry) above
Target sequence in this assay (P60468 whole entry, further chain): as the sequence (P60468 whole entry, further chain) above

SMILES: CC(C)C[C@@H]1NC(=O)[C@H](Cc2cn(Cc3ccc(Br)cc3)c3ccccc23)N(C)C(=O)[C@H](CC(F)(F)F)NC(=O)[C@H](CC(C)C)N(C)C(=O)[C@H](CC(F)(F)F)NC(=O)[C@@H](CCC#N)OC(=O)[C@H](C)N(C)C1=O [KZR-0508445] (cyclo(L[NMeA][Butanoyl(2R-oxy,4-CN)][Abu(4,4,4-F3)][NMeL][Abu(4,4,4-F3)][NMeTrp(1-(4-Br-benzyl))]))
- GLuc reporter raw signal (replicates) ([1]; HER3, Concentration 0.32): 2935000 and 2941500 and 3013900
- GLuc reporter raw signal (replicates) ([1]; HER3, Concentration 8): 2659500 and 2842600
- GLuc reporter raw signal (replicates) ([1]; HER3, Concentration 40): 1960600 and 2026300 and 1990500
- GLuc reporter raw signal (replicates) ([1]; HER3, Concentration 200): 739710 and 740510 and 713180
- GLuc reporter raw signal (replicates) ([1]; HER3, Concentration 1000): 117630 and 116630 and 119290
- GLuc reporter raw signal (replicates) ([1]; HER3, Concentration 5000): 40623 and 42704 and 41387
- GLuc reporter raw signal (replicates) ([1]; HER3, Concentration 25000): 40492 and 42302 and 41156
- GLuc reporter raw signal (replicates) ([1]; IL2, Concentration 0.32): 2694100 and 2451600 and 2682900
- GLuc reporter raw signal (replicates) ([1]; IL2, Concentration 8): 2155800 and 2012200 and 2217000
- GLuc reporter raw signal (replicates) ([1]; IL2, Concentration 40): 1384000 and 1357800 and 1362400
- GLuc reporter raw signal (replicates) ([1]; IL2, Concentration 200): 418080 and 431560 and 427460
- GLuc reporter raw signal (replicates) ([1]; IL2, Concentration 1000): 69620 and 75099 and 80209
- GLuc reporter raw signal (replicates) ([1]; IL2, Concentration 5000): 24453 and 26590 and 27282
- GLuc reporter raw signal (replicates) ([1]; IL2, Concentration 25000): 27001 and 26299 and 26941
- GLuc reporter raw signal (replicates) ([1]; PD1, Concentration 0.32): 1085300 and 1145000 and 1139600
- GLuc reporter raw signal (replicates) ([1]; PD1, Concentration 8): 871620 and 904180 and 884200
- GLuc reporter raw signal (replicates) ([1]; PD1, Concentration 40): 505580 and 506170 and 515230
- GLuc reporter raw signal (replicates) ([1]; PD1, Concentration 200): 149930 and 159870 and 181940
- GLuc reporter raw signal (replicates) ([1]; PD1, Concentration 1000): 25647 and 33346 and 33065
- GLuc reporter raw signal (replicates) ([1]; PD1, Concentration 5000): 10483 and 12045 and 12165
- GLuc reporter raw signal (replicates) ([1]; PD1, Concentration 25000): 10613 and 11144 and 10202
- GLuc reporter raw signal (replicates) ([1]; Prolactin, Concentration 0.32): 9123600 and 9441100 and 9520300
- GLuc reporter raw signal (replicates) ([1]; Prolactin, Concentration 40): 8673700 and 8850000 and 8412700
- GLuc reporter raw signal (replicates) ([1]; Prolactin, Concentration 200): 7415400 and 7981400 and 8354800
- GLuc reporter raw signal (replicates) ([1]; Prolactin, Concentration 1000): 4269000 and 4043400 and 4397300
- GLuc reporter raw signal (replicates) ([1]; Prolactin, Concentration 5000): 1501600 and 1605300 and 3990200
- GLuc reporter raw signal (replicates) ([1]; Prolactin, Concentration 25000): 1205700 and 1279300 and 1375600
- GLuc reporter raw signal (replicates) ([1]; TNFa, Concentration 0.32): 190530 and 188640 and 185180
- GLuc reporter raw signal (replicates) ([1]; TNFa, Concentration 8): 168690 and 159800
- GLuc reporter raw signal (replicates) ([1]; TNFa, Concentration 40): 128960 and 129480 and 142690
- GLuc reporter raw signal (replicates) ([1]; TNFa, Concentration 200): 58379 and 60837 and 65010
- GLuc reporter raw signal (replicates) ([1]; TNFa, Concentration 1000): 21193 and 19058 and 21945
- GLuc reporter raw signal (replicates) ([1]; TNFa, Concentration 5000): 10351 and 10241 and 10171
- GLuc reporter raw signal (replicates) ([1]; TNFa, Concentration 25000): 9540 and 9711 and 9400
- IC50 ([2]; ADPGK signal peptide-GLuc reporter): 540 nM
- IC50 ([2]; ANGPTL3 signal peptide-GLuc reporter): 49.4 nM
- IC50 ([2]; APOC1 signal peptide-GLuc reporter): 135 nM
- IC50 ([2]; APP signal peptide-GLuc reporter): 449 nM
- IC50 ([2]; AXL signal peptide-GLuc reporter): 13.8 nM
- IC50 ([2]; BCAN signal peptide-GLuc reporter): 142 nM
- IC50 ([2]; C1S signal peptide-GLuc reporter): 383 nM
- IC50 ([2]; CALCA signal peptide-GLuc reporter): 721 nM
- IC50 ([2]; CALCB signal peptide-GLuc reporter): 972 nM
- IC50 ([2]; CD40 signal peptide-GLuc reporter): 11300 nM
- IC50 ([2]; CD47 signal peptide-GLuc reporter): 373 nM
- IC50 ([2]; CD96 signal peptide-GLuc reporter): 29.2 nM
- IC50 ([2]; CD274 signal peptide-GLuc reporter): 93.3 nM
- IC50 ([2]; CDH1 signal peptide-GLuc reporter): 811 nM
- IC50 ([2]; CDH2 signal peptide-GLuc reporter): 15.5 nM
- IC50 ([2]; CDH5 signal peptide-GLuc reporter): 76 nM
- IC50 ([2]; CNPY2 signal peptide-GLuc reporter): 394 nM
- IC50 ([2]; CPD signal peptide-GLuc reporter): 694 nM
- IC50 ([2]; CR1L signal peptide-GLuc reporter): 61.3 nM
- IC50 ([2]; CSF2RB signal peptide-GLuc reporter): 652 nM
- IC50 ([2]; CTLA4 signal peptide-GLuc reporter): 343 nM
- IC50 ([2]; DDRGK1 signal peptide-GLuc reporter): 1850 nM
- IC50 ([2]; DMKN signal peptide-GLuc reporter): 2630 nM
- IC50 ([2]; DNAJB11 signal peptide-GLuc reporter): 4360 nM
- IC50 ([2]; ERBB2 signal peptide-GLuc reporter): 536 nM
- IC50 ([2]; F3 signal peptide-GLuc reporter): 162 nM
- IC50 ([2]; FGF23 signal peptide-GLuc reporter): 28.2 nM
- IC50 ([2]; FLT3 signal peptide-GLuc reporter): 360 nM
- IC50 ([2]; FNDC10 signal peptide-GLuc reporter): 726 nM
- IC50 ([2]; FURIN signal peptide-GLuc reporter): 4740 nM
- IC50 ([2]; GAS6 signal peptide-GLuc reporter): 118 nM
- IC50 ([2]; HJV signal peptide-GLuc reporter): 427 nM
- IC50 ([2]; HLA-G signal peptide-GLuc reporter): 39.2 nM
- IC50 ([2]; HSPA13 signal peptide-GLuc reporter): 1110 nM
- IC50 ([2]; IGF1R signal peptide-GLuc reporter): 814 nM
- IC50 ([2]; IL1RAP signal peptide-GLuc reporter): 101 nM
- IC50 ([2]; IL4R signal peptide-GLuc reporter): 32 nM
- IC50 ([2]; IL4 signal peptide-GLuc reporter): 359 nM
- IC50 ([2]; IL5RA signal peptide-GLuc reporter): 1320 nM
- IC50 ([2]; IL5 signal peptide-GLuc reporter): 1300 nM
- IC50 ([2]; IL6R signal peptide-GLuc reporter): 92.3 nM
- IC50 ([2]; IL6ST signal peptide-GLuc reporter): 56.5 nM
- IC50 ([2]; IL6 signal peptide-GLuc reporter): 155 nM
- IC50 ([2]; IL7 signal peptide-GLuc reporter): 5.23 nM
- IC50 ([2]; IL10 signal peptide-GLuc reporter): 434 nM
- IC50 ([2]; IL11 signal peptide-GLuc reporter): 183 nM
- IC50 ([2]; IL12B signal peptide-GLuc reporter): 109 nM
- IC50 ([2]; IL12RB1 signal peptide-GLuc reporter): 64.4 nM
- IC50 ([2]; IL13 signal peptide-GLuc reporter): 59.1 nM
- IC50 ([2]; IL15RA signal peptide-GLuc reporter): 294 nM
- IC50 ([2]; IL15 signal peptide-GLuc reporter): 116 nM
- IC50 ([2]; IL17A signal peptide-GLuc reporter): 318 nM
- IC50 ([2]; IL17F signal peptide-GLuc reporter): 228 nM
- IC50 ([2]; IL17RA signal peptide-GLuc reporter): 408 nM
- IC50 ([2]; IL23A signal peptide-GLuc reporter): 425 nM
- IC50 ([2]; IL23R signal peptide-GLuc reporter): 366 nM
- IC50 ([2]; ITGA3 signal peptide-GLuc reporter): 18300 nM
- IC50 ([2]; ITGB3 signal peptide-GLuc reporter): 106 nM
- IC50 ([2]; ITGB5 signal peptide-GLuc reporter): 89.1 nM
- IC50 ([2]; ITGB7 signal peptide-GLuc reporter): 228 nM
- IC50 ([2]; JTB signal peptide-GLuc reporter): 25.5 nM
- IC50 ([2]; KRTDAP signal peptide-GLuc reporter): 570 nM
- IC50 ([2]; LCN6 signal peptide-GLuc reporter): 101 nM
- IC50 ([2]; LDLR signal peptide-GLuc reporter): 800 nM
- IC50 ([2]; LILRB2 signal peptide-GLuc reporter): 1730 nM
- IC50 ([2]; LRP8 signal peptide-GLuc reporter): 681 nM
- IC50 ([2]; MASP2 signal peptide-GLuc reporter): 127 nM
- IC50 ([2]; METTL7A signal peptide-GLuc reporter): 6900 nM
- IC50 ([2]; NGF signal peptide-GLuc reporter): 347 nM
- IC50 ([2]; P3H1 signal peptide-GLuc reporter): 72.7 nM
- IC50 ([2]; PCDHA4 signal peptide-GLuc reporter): 489 nM
- IC50 ([2]; PCSK9 signal peptide-GLuc reporter): 1280 nM
- IC50 ([2]; PDCD1 signal peptide-GLuc reporter): 37 nM
- IC50 ([2]; PRKCSH signal peptide-GLuc reporter): 186 nM
- IC50 ([2]; PSG8 signal peptide-GLuc reporter): 292 nM
- IC50 ([2]; SIRPA signal peptide-GLuc reporter): 2030 nM
- IC50 ([2]; SSR2 signal peptide-GLuc reporter): 137 nM
- IC50 ([2]; STAB1 signal peptide-GLuc reporter): 670 nM
- IC50 ([2]; SUCO signal peptide-GLuc reporter): 1450 nM
- IC50 ([2]; TGFB1 signal peptide-GLuc reporter): 2210 nM
- IC50 ([2]; TGFB2 signal peptide-GLuc reporter): 187 nM
- IC50 ([2]; TGFBR1 signal peptide-GLuc reporter): 134 nM
- IC50 ([2]; TIGIT signal peptide-GLuc reporter): 590 nM
- IC50 ([2]; TMED10 signal peptide-GLuc reporter): 462 nM
- IC50 ([2]; UCN signal peptide-GLuc reporter): 5900 nM
